Measurements taken from ChEMBL document CHEMBL1201862, “PubChem BioAssay data set” (2004).
Active and inactive are the calls of the source.

Legend:
[1] = toxicity toward immortalized ovarian surface epithelium – cell-based, plate reader, dry powder samples, cytotoxicity control for PAX8 inhibitor project, dose response (AID 743045); type: functional
[2] = OVCAR4 cell viability loss – plate reader, dry powder, SA11, cytotoxicity control for PAX8 inhibitor project, dose response (AID 743150); type: functional, cell-based; details: OVCAR-4
[3] = Luminescence Cell-Based Dose Response HTS to Identify Inhibitors of 5'UTR Stem-Loop Driven Prion Protein mRNA Translation in H4 Neuroglioblastoma Cells. [Related pubchem assays: 1827 (Project Summary), 1813 (Primary HTS)]; type: functional
[4] = inhibitors acting on PAX2 in cells – cell-based, plate reader, dry powder samples, selectivity assay for PAX8 inhibitor project, dose response (AID 743048); type: functional;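 also: HEK293 cells carrying a WT1 promoter luciferase reporter driven by expressed Pax2; potency is for inhibition of Pax2 driven reporter signal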
[5] = PAX8-dependent cell viability loss – plate reader, dry powder, dose response (AID 743049); type: functional, cell-based
BJ [6] = experiment: cells; type: functional, cell-based; details: Homo sapiens
Paired box protein Pax-8 = Paired box protein Pax-8 (Homo sapiens, UniProt Q06710); experiment: PAX8 transcriptional activity inhibition in RMG-I – RMG-I cells, luciferase, cherry-pick, dose response (AID 687027); type: functional, cell-based;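 also: luciferase reporter driven by Pax8 target thyroperoxidase promoter measured by SteadyGlo luminescence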
[7] = A2780 cell killing – plate reader, dry powder samples, cytotoxicity control, dose response (AID 743046); type: functional, cell-based
[8] = luciferase reporter signal suppression in cells – H4 neuroglioma cells, luminescence, dose response (AID 1990); type: functional, cell-based
[9] = COV434 cell viability loss – plate reader, dry powder, SA7, cytotoxicity control for PAX8 inhibitor project, dose response (AID 743145); type: functional, cell-based
BJ [10] = experiment: BJ-TERT fibroblast viability loss – cell-based, RAS-independent, luminescence, dose response (AID 1933); type: functional; details: Homo sapiens
[11] = alpha-synuclein stem-loop translation blockers – luminescence, H4 neuroglioblastoma cells, dose confirmation, confirmation (AID 2454); type: functional, cell-based;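 also: H4 neuroglioblastoma cells carrying an alpha-synuclein 5'UTR luciferase reporter; potency for inhibition of the luciferase signal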
[12] = PAX5 cellular inhibition readout – cell-based, plate reader, dry powder samples, selectivity assay for PAX8 inhibitor project, dose response (AID 743047); type: functional;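 also: HEK293 cells carrying a Pax5 driven CD19 promoter luciferase reporter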
[13] = OVCAR-3 cell viability loss – plate reader, dry powder samples, PAX8 inhibitor project, dose response (AID 743044); type: functional, cell-based
[14] = COV362 cell viability loss – plate reader, dry powder, SA12, cytotoxicity control for PAX8 inhibitor project, dose response (AID 743144); type: functional, cell-based
[15] = luciferase reporter signal reduction – luminescence, H4-C neuroglioblastoma cells, dose response (AID 2458); type: functional, cell-based;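 also: H4 neuroglioblastoma cells stably carrying a luciferase reporter gene fusion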
BJ [16] = experiment: growth inhibition of engineered Ras-driven BJ cells – cell-based, alamar blue fluorescence, cherrypicked samples, dose response (AID 2631); type: functional; details: Homo sapiens;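 also: confirmatory dose-response assay in RAS-dependent BJ fibroblasts engineered with TERT, LT and ST, with cytotoxicity read by fluorescence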
[17] = IGROV1 cell killing – plate reader, dry powder samples, PAX8 inhibitor project, dose response (AID 743043); type: functional, cell-based; details: IGROV-1
[18] = OV-90 cell viability loss – plate reader, dry powder, SA8, PAX8 inhibitor project, dose response (AID 743149); type: functional, cell-based
[19] = DRD fibroblast viability loss – cell-based, non-viral oncogenic, luminescence, dose response (AID 1934); type: functional; details: Homo sapiens
[20] = alpha-synuclein stem-loop luciferase translation blockers – H4 neuroglioma cells, luminescence, confirmation (AID 1988); type: functional, cell-based
cells [21] = type: functional, cell-based
Transthyretin = Transthyretin (Homo sapiens, UniProt P02766); experiment: Luminescence-based cell-based high throughput dose response assay to identify activators of Transthyretin (TTR) transcription.; type: functional
[22] = viability inhibitors of stage V gametocytes – luminescence, dose response (AID 1117278); type: functional, cell-based;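 also: gametocytes exposed to compound for 24 hours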
[23] = viability loss in human Jurkat cells – cell-based, luminescence, cytotoxicity control for P. falciparum gametocyte viability project, dose response (AID 1117277); type: functional;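 also: potency reflects loss of cellular ATP meaning fewer viable cells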
[24] = biological target: Glutathione-S-transferase (Schistosoma japonicum, UniProt Q26513); experiment: GST-antibody interaction or FRET quenching – biochemical, TR-FRET, artefact control for Vif-APOBEC3G degradation inhibitor project, dose response (AID 1117362); type: functional
Vero = experiment: viability of Vero cells under compound – cytotoxicity control for flavivirus capping enzyme inhibitors (AID 588742); type: functional; details: Chlorocebus sabaeus
[25] = biological target: T1, Trace amine-associated receptor 1 (Homo sapiens, UniProt Q96RJ0); experiment: Counterscreen for agonists of the human trace amine associated receptor 1 (hTAAR1): Fluorescence-based cell-based high throughput dose response assay to identify hTAAR1 agonist that also desensitize TAAR1 receptor response.; type: functional
T1 sequence (Q96RJ0 whole entry): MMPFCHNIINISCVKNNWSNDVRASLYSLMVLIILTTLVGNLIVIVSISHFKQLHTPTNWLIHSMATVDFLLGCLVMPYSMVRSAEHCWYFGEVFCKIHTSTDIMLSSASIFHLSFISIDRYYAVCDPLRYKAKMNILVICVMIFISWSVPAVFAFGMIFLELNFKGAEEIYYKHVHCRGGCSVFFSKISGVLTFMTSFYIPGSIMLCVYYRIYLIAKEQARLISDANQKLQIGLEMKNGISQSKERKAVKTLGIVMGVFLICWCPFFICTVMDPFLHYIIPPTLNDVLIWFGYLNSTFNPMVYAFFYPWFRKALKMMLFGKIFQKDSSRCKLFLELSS

[26] = biological target: T1, Trace amine-associated receptor 1; experiment: Fluorescence-based cell-based high throughput dose response assay to identify agonists of the human trace amine associated receptor 1 (TAAR1).; type: functional
cells [27] = type: functional, cell-based; remark: listed apart in the source
[28] = biological target: T2, Mannose-6-phosphate isomerase (Homo sapiens, UniProt P34949); experiment: MPI inhibition at elevated mannose 6-phosphate – biochemical, fluorescence intensity, high mannose 6-phosphate, primary screen (AID 1220)
T2 sequence (P34949 whole entry): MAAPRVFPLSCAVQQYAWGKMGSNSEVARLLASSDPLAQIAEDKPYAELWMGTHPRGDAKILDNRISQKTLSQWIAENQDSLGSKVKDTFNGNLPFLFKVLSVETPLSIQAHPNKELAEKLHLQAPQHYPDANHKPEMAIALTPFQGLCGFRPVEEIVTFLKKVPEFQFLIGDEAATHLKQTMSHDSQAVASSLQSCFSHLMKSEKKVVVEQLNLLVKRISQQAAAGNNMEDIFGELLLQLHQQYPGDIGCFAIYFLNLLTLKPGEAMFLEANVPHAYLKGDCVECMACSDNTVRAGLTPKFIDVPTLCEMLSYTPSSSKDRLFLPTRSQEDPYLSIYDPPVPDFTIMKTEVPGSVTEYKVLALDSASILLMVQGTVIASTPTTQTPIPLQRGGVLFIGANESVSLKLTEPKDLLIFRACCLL

cells [29] = type: functional, cell-based; remark: listed apart in the source
[30] = biological target: E3 ubiquitin-protein ligase Mdm2 (Homo sapiens, UniProt Q00987); experiment: MDM2-luc reporter signal enhancers, multi-concentration potency testing, MDM2 ubiquitin-protein ligase inhibitor program, whole-cell format, luminescence detection, 384-well microplate (AID 1394); type: functional;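 also: MDM2 E3 inhibitors raise luminescence so EC50 is for signal enhancement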
[31] = MITF Orthogonal Assay: SK-MEL-5 CTG Assay Measured in Cell-Based System Using Plate Reader - 2084-02_Inhibitor_Dose_DryPowder_Activity_Set7.; type: functional
[32] = inhibitors of TRPM1-promoter reporter in SK-MEL-5 – cell-based, luciferase, dry powder, set 8, MITF inhibitor project, dose response (AID 624430); type: functional
[33] = inhibitors of TRPM1-promoter reporter in SK-MEL-5 – cell-based, luciferase, dry powder, set 9, MITF inhibitor project, dose response (AID 651588); type: functional
[34] = growth inhibition of MALME3 cells – cell-based, CellTiter-Glo luminescence, dry powder, set 5, orthogonal assay for MITF inhibitor project, dose response (AID 651584); type: functional; details: MALME-3
[35] = growth inhibition of SK-MEL-5 melanoma cells – cell-based, CellTiter-Glo luminescence, dry powder, set 8, orthogonal assay for MITF inhibitor project, dose response (AID 651586); type: functional
[36] = MITF: Counter assay: A375 proliferation Measured in Cell-Based System Using Plate Reader - 2084-03_Inhibitor_Dose_DryPowder_Activity_Set8.; type: functional; details: A-375
[37] = MITF Orthogonal Assay: MALME3 CTG Assay Measured in Cell-Based System Using Plate Reader - 2084-04_Inhibitor_Dose_DryPowder_Activity_Set6.; type: functional; details: MALME-3
[38] = rise of 2N DNA cells, HeLa – IC50, dose response (AID 1117349); type: functional, cell-based
[39] = SNU-C1 cell viability reduction, dose response, CellTiter-Glo luminescence (AID 1117323); type: functional, cell-based
[40] = cytotoxicity toward Colo320 cells – cell-based, CellTiter-Glo luminescence, IC50, dose response (AID 1117334); type: functional; details: COLO 320
[41] = rise of 4N DNA cells, HeLa – IC50, dose response (AID 1117351); type: functional, cell-based
[42] = Reduced DLD-1 viability, concentration-response, CellTiter-Glo luminescence (AID 1117352); type: functional
[43] = RKO cell viability reduction, dose response, CellTiter-Glo luminescence (AID 1117322); type: functional
[44] = CellTiter-Glo luminescence survival assay, SW480 colon tumor line, concentration-response curve, half-maximal inhibitory concentration (AID 1117338); type: functional
[45] = HCT116 cell viability decrease, GSK3B pretreatment – CellTiter-Glo, IC50, dose response (AID 1117339); type: functional; details: HCT-116
[46] = cytotoxicity toward HCT116 cells – cell-based, CellTiter-Glo luminescence, IC50, dose response (AID 1117332); type: functional; details: HCT-116
[47] = cytotoxicity toward HT-29 cells – cell-based, CellTiter-Glo luminescence, IC50, dose response (AID 1117330); type: functional
[48] = Late stage results for the probe development effort to identify inhibitors of Plasmodium falciparum gametocytes: Luminescence-based cell-based high throughput dose response assay to identify inhibitors of viability of late stage Plasmodium falciparum gametocytes.; type: functional
[49] = growth inhibition of yeast DHODH-expressing 3D7 parasites – SYBR Green, dry powder samples, dose response (AID 1159570); type: functional, cell-based;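 also: parasite growth measured after 72 hours of compound exposure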
[50] = toxicity to human HepG2 hepatoma cells – cell-based, plate reader, dry powder samples, cytotoxicity control, dose response (AID 1159569); type: functional;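 also: inhibitor potency with signal falling toward the positive control level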
[51] = Dd2 malaria parasite growth inhibition potency – SYBR Green, dry powder samples, dose response (AID 1159566); type: functional, cell-based;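 also: potency for growth inhibition with lower SYBR green DNA signal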
[52] = growth inhibition of PfATP4-mutant resistant parasites – NITD609-resistant line, SYBR Green, dry powder, dose response (AID 1159571); type: functional, cell-based;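 also: parasites synchronized at ring stage by sorbitol before testing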
[53] = P. falciparum Dd2 growth inhibitors, dose response, SYBR Green, cherry-picked samples (AID 1159567); type: functional, cell-based
[54] = biological target: T3, Low molecular weight phosphotyrosine protein phosphatase (Homo sapiens, UniProt P24666); experiment: inhibition of human LMPTP enzyme activity – biochemical, absorbance, pNPP substrate, LMPTP-A isoform, set 2, orthogonal assay, dose response (AID 743308); type: functional
T3 sequence (P24666 whole entry): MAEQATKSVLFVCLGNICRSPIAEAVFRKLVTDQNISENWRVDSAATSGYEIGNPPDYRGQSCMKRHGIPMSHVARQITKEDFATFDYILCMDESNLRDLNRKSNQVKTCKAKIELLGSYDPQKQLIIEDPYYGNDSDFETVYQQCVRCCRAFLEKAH

[55] = biological target: T3, Low molecular weight phosphotyrosine protein phosphatase; experiment: inhibition of LMPTP-A enzymatic activity – biochemical, OMFP substrate, fluorescence intensity, set 2, dose response (AID 743307); type: functional

Chain of E3 ubiquitin-protein ligase Mdm2 (Q00987 whole entry): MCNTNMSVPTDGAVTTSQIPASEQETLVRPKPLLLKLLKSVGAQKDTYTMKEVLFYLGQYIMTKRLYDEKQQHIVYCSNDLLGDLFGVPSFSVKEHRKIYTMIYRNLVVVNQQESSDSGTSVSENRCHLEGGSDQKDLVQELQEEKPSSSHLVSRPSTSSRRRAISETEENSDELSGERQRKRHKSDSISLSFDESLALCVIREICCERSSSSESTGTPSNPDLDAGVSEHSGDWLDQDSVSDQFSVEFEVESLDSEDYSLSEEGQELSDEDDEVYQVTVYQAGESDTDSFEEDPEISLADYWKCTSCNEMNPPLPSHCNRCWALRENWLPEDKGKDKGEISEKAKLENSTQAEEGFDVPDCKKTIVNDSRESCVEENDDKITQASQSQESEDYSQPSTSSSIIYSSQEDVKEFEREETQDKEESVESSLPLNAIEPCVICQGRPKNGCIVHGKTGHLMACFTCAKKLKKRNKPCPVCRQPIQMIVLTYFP
Chain of Glutathione-S-transferase (Q26513 whole entry): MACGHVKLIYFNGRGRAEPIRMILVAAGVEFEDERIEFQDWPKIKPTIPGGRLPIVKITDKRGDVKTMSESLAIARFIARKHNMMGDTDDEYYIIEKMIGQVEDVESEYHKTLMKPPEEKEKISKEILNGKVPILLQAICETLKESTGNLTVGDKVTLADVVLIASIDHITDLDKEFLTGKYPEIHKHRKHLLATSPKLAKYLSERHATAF
Chain of Paired box protein Pax-8 (Q06710 whole entry): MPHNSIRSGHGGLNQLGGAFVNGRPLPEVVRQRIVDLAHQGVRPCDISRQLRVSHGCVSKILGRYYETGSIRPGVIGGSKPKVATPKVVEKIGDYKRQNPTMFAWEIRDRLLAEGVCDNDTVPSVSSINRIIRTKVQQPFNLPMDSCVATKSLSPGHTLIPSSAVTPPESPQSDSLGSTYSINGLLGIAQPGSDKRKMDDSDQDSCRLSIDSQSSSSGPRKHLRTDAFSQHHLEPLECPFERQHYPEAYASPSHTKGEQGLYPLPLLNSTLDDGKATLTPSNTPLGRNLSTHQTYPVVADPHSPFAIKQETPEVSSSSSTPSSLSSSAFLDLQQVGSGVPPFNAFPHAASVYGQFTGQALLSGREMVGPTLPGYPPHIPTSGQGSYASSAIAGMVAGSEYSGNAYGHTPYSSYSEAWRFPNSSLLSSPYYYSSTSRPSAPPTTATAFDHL

Cc1cccc(C)c1NS(=O)(=O)c1ccc(-c2cnc(C3CC3)o2)cc1
> 120 µM (not active): EC50 [3]
inconclusive: EC50 (BJ [6]) 0.751 µM | EC50 [19] 60.4 µM
active: AC50 [1] 0.651 µM | AC50 [2] 0.366 µM | AC50 [4] 22.4 µM | AC50 [5] 5.36 µM | AC50 (Paired box protein Pax-8) 1.74 µM | AC50 [7] 2.06 µM | EC50 [8] < 0.1 µM | AC50 [9] 0.329 µM | EC50 (BJ [10]) 0.158 µM | EC50 [11] 0.208 µM | AC50 [12] 4.58 µM | AC50 [13] 12.1 µM | AC50 [14] 0.401 µM | EC50 [15] 0.113 µM | EC50 (BJ [16]) < 0.104 µM | AC50 [17] 5.04 µM | AC50 [18] 0.973 µM | EC50 [20] < 0.1 µM | EC50 (cells [21]) 0.229 µM

Cn1cc(C2CC(c3ccccc3)=NN2C(=O)c2ccccc2)c2ccccc21 (stereo not drawn)
inactive: EC50 (Transthyretin) > 167 µM

OCC1(Cc2ccccc2)CCN(Cc2cnc(-c3ccc(Cl)cc3)nc2)CC1
inactive: IC50 [22] > 109 µM | IC50 [23] > 83.3 µM

Cc1nn(-c2ccccn2)c2c1C(=O)C(Br)CC2 (stereo not drawn)
active: IC50 [24] 65.6 µM | CC50 (Vero) > 40 µM

O=[N+]([O-])c1ccc2c(c1NCCc1ccccc1)=NC1(CCCCC1)[N+]=2[O-]
> 50 µM (not active): IC50 [28]
393 µM (not active): EC50 [30]
inactive: IC50 (cells [27]) > 29.9 µM | EC50 (cells [29]) > 29.9 µM
active: IC50 [25] 8.86 µM | EC50 [26] 3.09 µM

CC(C)N1CCN(C2=C(Nc3ccc(F)cc3F)C(=O)c3ccccc3C2=O)CC1
inactive: AC50 [36] > 70 µM
active: AC50 [31] 8.73 µM | AC50 [32] 2.16 µM | AC50 [33] 9.91 µM | AC50 [34] 25.4 µM | AC50 [35] 59.1 µM | AC50 [37] 25.4 µM

Cc1cc(N)c2ccccc2[n+]1CCCCCCCCCC[n+]1c(C)cc(N)c2ccccc21
inactive: IC50 [38] > 10 µM | IC50 [40] 15.9 µM | IC50 [41] > 10 µM | IC50 [42] 5.72 µM | IC50 [45] > 20 µM | IC50 [46] > 20 µM | IC50 [47] > 20 µM
active: IC50 [39] 1.29 µM | IC50 [43] 2.45 µM | IC50 [44] 3.83 µM

Cc1cccc(-c2nn(-c3ccccc3)cc2C(=O)Nc2nccs2)c1
inactive: IC50 [48] > 74.4 µM

OC[C@@H]1[C@@H](c2ccccc2)C2(CN(CCC(F)(F)F)C2)N1Cc1ccccc1
active: AC50 [49] 2.89 µM | AC50 [50] 69.1 µM | AC50 [51] 2.48 µM | AC50 [52] 2.36 µM | AC50 [53] 2.27 µM

FC(F)(F)c1cccc(-c2cc(NCCCN3CCCCC3)c3ccccc3n2)c1
active: IC50 [54] 6.94 µM | IC50 [55] 2.66 µM
